PubChem BioAssay (NCI)
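The concentration for 50% growth inhibition is given as GI50. TGI: concentration producing complete growth inhibition.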

How the values were obtained:
Test in all cases: NCI tumour cell line growth inhibition, 384-well format
OVCAR-5 ovarian = tested on: OVCAR-5 ovarian
IGROV1 ovarian = tested on: IGROV1 ovarian
786-0 renal = tested on: 786-0 renal
U251 glioblastoma = tested on: U251 glioblastoma
RXF 393 renal = tested on: RXF 393 renal
CAKI-1 renal = tested on: CAKI-1 renal
HOP-92 NSCLC = tested on: HOP-92 NSCLC
K-562 leukemia = tested on: K-562 leukemia
NCI-H226 lung = tested on: NCI-H226 lung
OVCAR-4 ovarian = tested on: OVCAR-4 ovarian
SF-268 CNS = tested on: SF-268 CNS
SNB-19 CNS = tested on: SNB-19 CNS
PC-3 prostate = tested on: PC-3 prostate
SK-OV-3 ovarian = tested on: SK-OV-3 ovarian
TK-10 renal = tested on: TK-10 renal
A498 renal = tested on: A498 renal
HOP-62 NSCLC = tested on: HOP-62 NSCLC
LOX IMVI melanoma = tested on: LOX IMVI melanoma
MDA-MB-231 breast = tested on: MDA-MB-231 breast
SN12C renal = tested on: SN12C renal
NCI-H322M lung = tested on: NCI-H322M lung
EKVX NSCLC = tested on: EKVX NSCLC
A549 NSCLC = tested on: A549 NSCLC
NCI-H460 NSCLC = tested on: NCI-H460 NSCLC
ACHN renal = tested on: ACHN renal
SF-539 CNS = tested on: SF-539 CNS
OVCAR-3 ovarian = tested on: OVCAR-3 ovarian
UO-31 renal = tested on: UO-31 renal
NCI/ADR-RES ovarian = tested on: NCI/ADR-RES ovarian
KM12 colon = tested on: KM12 colon
OVCAR-8 ovarian = tested on: OVCAR-8 ovarian
HCT-15 colon = tested on: HCT-15 colon
MCF7 breast = tested on: MCF7 breast
SF-295 CNS = tested on: SF-295 CNS
UACC-62 melanoma = tested on: UACC-62 melanoma
HCT-116 colon = tested on: HCT-116 colon
MALME-3M melanoma = tested on: MALME-3M melanoma
M14 melanoma = tested on: M14 melanoma
SW-620 colon = tested on: SW-620 colon
COLO 205 colon = tested on: COLO 205 colon
BT-549 breast = tested on: BT-549 breast
SNB-75 CNS = tested on: SNB-75 CNS
RPMI-8226 leukemia = tested on: RPMI-8226 leukemia
SK-MEL-5 melanoma = tested on: SK-MEL-5 melanoma
SR leukemia = tested on: SR leukemia
HS 578T breast = tested on: HS 578T breast
MDA-MB-468 breast = tested on: MDA-MB-468 breast
DU-145 prostate = tested on: DU-145 prostate
UACC-257 melanoma = tested on: UACC-257 melanoma
SK-MEL-28 melanoma = tested on: SK-MEL-28 melanoma
HL-60(TB) leukemia = tested on: HL-60(TB) leukemia
HT29 colon = tested on: HT29 colon
MDA-MB-435 melanoma = tested on: MDA-MB-435 melanoma
HCC-2998 colon = tested on: HCC-2998 colon
T-47D breast = tested on: T-47D breast
NCI-H23 lung = tested on: NCI-H23 lung
MOLT-4 leukemia = tested on: MOLT-4 leukemia
NCI-H522 lung = tested on: NCI-H522 lung

CC(=O)O[C@H]1C(=O)[C@@]2(C)[C@H]([C@H](OC(=O)c3ccccc3)[C@]3(O)C[C@H](OC(=O)[C@H](O)[C@@H](NC(=O)c4ccccc4)c4ccccc4)C(C)=C1C3(C)C)[C@]1(OC(C)=O)CO[C@@H]1C[C@@H]2O
TGI (OVCAR-5 ovarian): > 83.8 µM | TGI (IGROV1 ovarian): > 67.9 µM | GI50 ([…]-0 renal): 0.0191 µM | TGI (786-0 renal): > 54.4 µM | TGI (U251 glioblastoma): > 31.6 µM | GI50 (RXF 393 renal): < 0.0116 µM | TGI (RXF 393 renal): 0.022 µM | GI50 (CAKI-1 renal): 0.0507 µM | TGI (CAKI-1 renal): > 100 µM | TGI (HOP-92 NSCLC): 28 µM | TGI (K-562 leukemia): < 0.013 µM | GI50 (NCI-H226 lung): 0.745 µM | TGI (NCI-H226 lung): 19.2 µM | TGI (OVCAR-4 ovarian): > 69.5 µM | TGI (SF-268 CNS): 31.4 µM | TGI (SNB-19 CNS): > 71.1 µM | TGI (PC-3 prostate): > 100 µM | TGI (SK-OV-3 ovarian): > 31.6 µM | GI50 (TK-10 renal): 0.0337 µM | TGI (TK-10 renal): 28 µM | GI50 (A498 renal): 0.0265 µM | TGI (A498 renal): 36.3 µM | TGI (HOP-62 NSCLC): 14.7 µM | TGI (LOX IMVI melanoma): 37.3 µM | TGI (MDA-MB-231 breast): 22.7 µM | TGI (SN12C renal): 99.9 µM | GI50 (NCI-H322M lung): 0.014 µM | TGI (NCI-H322M lung): > 100 µM | GI50 (EKVX NSCLC): 0.039 µM | TGI (EKVX NSCLC): > 31.6 µM | TGI (A549 NSCLC): > 46.4 µM | TGI (NCI-H460 NSCLC): < 0.013 µM | GI50 (ACHN renal): 0.0611 µM | TGI (ACHN renal): 45.8 µM | TGI (SF-539 CNS): 0.0123 µM | TGI (OVCAR-3 ovarian): 0.144 µM | GI50 (UO-31 renal): 0.348 µM | TGI (UO-31 renal): > 69.3 µM | GI50 (NCI/ADR-RES ovarian): 3.1 µM | TGI (NCI/ADR-RES ovarian): 9.24 µM | TGI (KM12 colon): > 100 µM | TGI (OVCAR-8 ovarian): 0.0102 µM | GI50 (HCT-15 colon): 0.0889 µM | TGI (HCT-15 colon): 25 µM | TGI (MCF7 breast): > 46.2 µM | GI50 (SF-295 CNS): 0.0114 µM | TGI (SF-295 CNS): 0.0364 µM | TGI (UACC-62 melanoma): 18.8 µM | TGI (HCT-116 colon): > 100 µM

CNC(=O)c1ccc(N2C(=S)N(c3ccc(C#N)c(C(F)(F)F)c3)C(=O)C2(C)C)cc1F
GI50 (MALME-3M melanoma): 24.1 µM | TGI (MALME-3M melanoma): > 100 µM | GI50 (M14 melanoma): 81.9 µM | TGI (M14 melanoma): > 100 µM | GI50 (OVCAR-5 ovarian): > 100 µM | TGI (OVCAR-5 ovarian): > 100 µM | GI50 (SW-620 colon): > 100 µM | TGI (SW-620 colon): > 100 µM | GI50 (IGROV1 ovarian): 52.1 µM | TGI (IGROV1 ovarian): > 100 µM | GI50 ([…]-0 renal): > 100 µM | TGI (786-0 renal): > 100 µM | GI50 (U251 glioblastoma): 61.9 µM | TGI (U251 glioblastoma): > 100 µM | GI50 (RXF 393 renal): 29.6 µM | TGI (RXF 393 renal): 85.7 µM | GI50 (CAKI-1 renal): 90.8 µM | TGI (CAKI-1 renal): > 100 µM | GI50 (COLO 205 colon): 95.5 µM | TGI (COLO 205 colon): > 100 µM | GI50 (HOP-92 NSCLC): > 100 µM | TGI (HOP-92 NSCLC): > 100 µM | GI50 (NCI-H226 lung): 29.9 µM | TGI (NCI-H226 lung): > 100 µM | GI50 (OVCAR-4 ovarian): 34.7 µM | TGI (OVCAR-4 ovarian): 92.6 µM | GI50 (BT-549 breast): 31.7 µM | TGI (BT-549 breast): 95.5 µM | GI50 (SF-268 CNS): 72.2 µM | TGI (SF-268 CNS): > 100 µM | GI50 (SNB-75 CNS): 48.5 µM | TGI (SNB-75 CNS): > 100 µM | GI50 (SNB-19 CNS): 85.4 µM | TGI (SNB-19 CNS): > 100 µM | GI50 (PC-3 prostate): 49.6 µM | TGI (PC-3 prostate): > 100 µM | GI50 (RPMI-8226 leukemia): 32 µM | TGI (RPMI-8226 leukemia): > 100 µM | GI50 (SK-OV-3 ovarian): > 100 µM | TGI (SK-OV-3 ovarian): > 100 µM | GI50 (SK-MEL-5 melanoma): 41.4 µM | TGI (SK-MEL-5 melanoma): > 100 µM | GI50 (TK-10 renal): > 100 µM | TGI (TK-10 renal): > 100 µM | GI50 (A498 renal): 54.7 µM | TGI (A498 renal): > 100 µM | GI50 (SR leukemia): 33.5 µM | TGI (SR leukemia): 49.7 µM | GI50 (HOP-62 NSCLC): 27.5 µM | TGI (HOP-62 NSCLC): 84.9 µM | GI50 (HS 578T breast): 30.9 µM | TGI (HS 578T breast): > 100 µM | GI50 (MDA-MB-468 breast): 26.9 µM | TGI (MDA-MB-468 breast): 80.2 µM | GI50 (LOX IMVI melanoma): 49.6 µM | TGI (LOX IMVI melanoma): > 100 µM | GI50 (MDA-MB-231 breast): 95.6 µM | TGI (MDA-MB-231 breast): > 100 µM | GI50 (DU-145 prostate): 37.5 µM | TGI (DU-145 prostate): > 100 µM | GI50 (SN12C renal): > 100 µM | TGI (SN12C renal): > 100 µM | GI50 (UACC-257 melanoma): 72.4 µM | TGI (UACC-257 melanoma): > 100 µM | GI50 (NCI-H322M lung): 93.8 µM | TGI (NCI-H322M lung): > 100 µM | GI50 (SK-MEL-28 melanoma): > 100 µM | TGI (SK-MEL-28 melanoma): > 100 µM | GI50 (HL-60(TB) leukemia): 17 µM | TGI (HL-60(TB) leukemia): 34.5 µM | GI50 (HT29 colon): 82.9 µM | TGI (HT29 colon): > 100 µM | GI50 (EKVX NSCLC): 44.8 µM | TGI (EKVX NSCLC): > 100 µM | GI50 (A549 NSCLC): 34.4 µM | TGI (A549 NSCLC): > 100 µM | GI50 (NCI-H460 NSCLC): 38.9 µM | TGI (NCI-H460 NSCLC): > 100 µM | GI50 (MDA-MB-435 melanoma): > 100 µM | TGI (MDA-MB-435 melanoma): > 100 µM | GI50 (HCC-2998 colon): 93.4 µM | TGI (HCC-2998 colon): > 100 µM | GI50 (ACHN renal): 19.8 µM | TGI (ACHN renal): 40.4 µM | GI50 (SF-539 CNS): > 100 µM | TGI (SF-539 CNS): > 100 µM | GI50 (T-47D breast): 32.9 µM | TGI (T-47D breast): > 100 µM | GI50 (OVCAR-3 ovarian): 59.2 µM | TGI (OVCAR-3 ovarian): > 100 µM | GI50 (UO-31 renal): 63.1 µM | TGI (UO-31 renal): > 100 µM | GI50 (NCI-H23 lung): 31.3 µM | TGI (NCI-H23 lung): > 100 µM | GI50 (NCI/ADR-RES ovarian): 27.5 µM | TGI (NCI/ADR-RES ovarian): 90.9 µM | GI50 (KM12 colon): 69.1 µM | TGI (KM12 colon): > 100 µM | GI50 (OVCAR-8 ovarian): 37.6 µM | TGI (OVCAR-8 ovarian): > 100 µM | GI50 (MOLT-4 leukemia): 18.1 µM | TGI (MOLT-4 leukemia): 35.3 µM | GI50 (HCT-15 colon): 46 µM | TGI (HCT-15 colon): > 100 µM | GI50 (MCF7 breast): 37.6 µM | TGI (MCF7 breast): > 100 µM | GI50 (NCI-H522 lung): 74 µM | TGI (NCI-H522 lung): > 100 µM | GI50 (SF-295 CNS): 31.6 µM | TGI (SF-295 CNS): > 100 µM | GI50 (UACC-62 melanoma): > 100 µM | TGI (UACC-62 melanoma): > 100 µM | GI50 (HCT-116 colon): 33.7 µM | TGI (HCT-116 colon): > 100 µM
